According to patent EP1914304A1 (priority 1998, dated 1999):

Assays:
[1] = biological target: gmk/TK-trunc fusion protein (murine guanylate kinase fused to wild-type HSV-1 TK without its first nine amino acids; pET23d:gmk/TK-trunc) (UniProt P0DTH5+Q64520); conditions: Table X; purified from E. coli
[2] = biological target: gmk/TK-fl fusion protein (murine guanylate kinase fused to the entire wild-type HSV-1 TK; pET23d:gmk/TK-fl) (UniProt P0DTH5+Q64520); conditions: Table X; purified from E. coli
[3] = system: Rat C6 cells expressing TK mutant SR39; test: Rat C6 kill curves with GCV and ACV; assay type: cell-based; conditions: Table VIII
Source text: (§1) The seven mutants were subcloned into the mammalian expression vector, pREP8D7:dualGFP. This vector contains a constitutive metallothionin promoter, which drives the expression of green flourescent protein (GFP), and an RSV LTR promoter, which stimulated expression of the TK mutants. The vector also contains a histidinol resistance gene for selection of transformants. Purified vector DNA of these constructs was used to transfect BHK tk- cells by electroporation. The transfectants were selected by resistance to histidinol and sorted using FACS analysis for GFP expression. Pools of transfectants were then assayed for sensitivity to GCV or ACV over a range of prodrug doses. […] Table VIII illustrates the IC50 values from Rat C6 kill curves with the SR11, SR26, and SR39 mutants.

[4] = system: Rat C6 cells expressing wild-type TK; test: Rat C6 kill curves with GCV and ACV; assay type: cell-based; conditions: Table VIII
Source text: as §1

[5] = system: Rat C6 cells expressing TK mutant 75; test: Rat C6 kill curves with GCV and ACV; assay type: cell-based; conditions: Table VIII
Source text: as §1

[6] = system: Rat C6 cells expressing TK mutant 411; test: Rat C6 kill curves with GCV and ACV; assay type: cell-based; conditions: Table VIII
Source text: as §1

[7] = system: Rat C6 cells expressing TK mutant SR11; test: Rat C6 kill curves with GCV and ACV; assay type: cell-based; conditions: Table VIII
Source text: as §1

[8] = system: Rat C6 cells expressing TK mutant 30; test: Rat C6 kill curves with GCV and ACV; assay type: cell-based; conditions: Table VIII
Source text: as §1

[9] = system: Rat C6 cells expressing TK mutant SR26; test: Rat C6 kill curves with GCV and ACV; assay type: cell-based; conditions: Table VIII
Source text: as §1

[10] = biological target: T1, HSV-1 thymidine kinase mutant 75 (LIF-ALL library, codons 159-161 and 168-170 randomized; pET23d:75) (Human herpesvirus 1, UniProt P0DTH5); conditions: Table V
T1 sequence (P0DTH5 1-376): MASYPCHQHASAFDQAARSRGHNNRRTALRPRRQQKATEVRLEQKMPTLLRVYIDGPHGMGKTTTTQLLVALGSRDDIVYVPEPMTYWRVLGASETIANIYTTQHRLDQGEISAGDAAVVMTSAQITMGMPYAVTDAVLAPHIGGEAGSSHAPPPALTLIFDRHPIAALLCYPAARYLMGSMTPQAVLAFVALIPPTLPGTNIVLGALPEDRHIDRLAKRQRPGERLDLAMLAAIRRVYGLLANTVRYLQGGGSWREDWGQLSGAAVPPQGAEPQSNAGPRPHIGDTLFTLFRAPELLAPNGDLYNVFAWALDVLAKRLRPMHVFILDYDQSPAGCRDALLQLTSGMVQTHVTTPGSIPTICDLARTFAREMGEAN
Protocol: The culture is incubated at 37°C overnight. The following day the 5ml culture is used to inoculate 1L M9ZB + cabenicillin at 20µg/ml and the culture allowed to grow at 37°C to OD600 0.1. At that point IPTG is added to 0.4mM and the culture incubated a further 3 hours. The cells are chilled on ice, pelleted by centrifugation and the pellets washed once in cell wash buffer (50mM Tris, pH 7.5, 5mM EDTA, 10% sucrose) prior to freezing the pellets at -70°C. The next day the cells are resuspended in 12ml Buffer 1 (50mM Tris, pH 7.5, 10% sucrose, 2mM DTT, 5mM EDTA, 1mM PMSF) and the volume split into two 13ml Oakridge ultracentrifuge tubes. 1ml Buffer 1 containing 3mg lysozyme is added to each tube and the tubes left on ice for 1 hr. […] The cleared supernatant is then aliquoted and frozen at -70°C.
The 1ml bed volume column is prepared by passing 10ml Buffer 1 followed by 10ml Absorption Buffer (50mM Tris, pH 7.5, 10% sucrose, 2mM DTT, 25mM MgAc2, 10mM ATP) over the column. Two ml of the cleared lysate is mixed with 2 ml of Absorption Buffer and passed through a 0.2µm filter. This mix is passed over the column 3 times. The column is washed with 5ml Absorption buffer three times and the 5ml fractions collected. […] The column is reactivated by loading on 10ml High Salt Buffer (50mM Tris, pH 7.5, 10% sucrose, 2mM DTT, 0.5M KCl) and 10ml 50mM Tris, pH 7.5. The column is stored in 50mM Tris pH 7.5 + 0.004% sodium azide. The extent of purification is monitored by Coomassie stained SDS:PAGE analysis and the concentration of purified protein determined using the BioRad Reagent (Bradford Reagent).
Km and Vmax values are determined from double reciprocal plots and kcat values are calculated using the equation Vmax = kcat [Eo] where [Eo] is the total enzyme concentration. The BioRad reagent was used to determine the total enzyme concentration of purified thymidine kinase enzymes.

[11] = system: ts13 BHK tk- cells transfected with pCMV:75 (HSV-1 TK mutant 75); test: Cell killing by GCV and ACV, Alamar Blue viability (ED50); assay type: cell-based, baby hamster; conditions: Mesocricetus auratus, 96 h; effective dose for 50% cell killing, after 4 days on nucleoside analog, pooled G418 resistant clones
Protocol: (§2) Briefly, the cell transfections are performed as follows. Approximately 5 x 10^5 ts13 BHK tk cells (ATCC CRL-1632) are plated on 100mm dishes in DMEM + 10% calf serum. For each transfection 1 µg of pSV2neo and 10µg of a pCMV construct (pCMV, pCMV:TK-wrong (HSVTK in the wrong orientation relative to the promoter), pCMV:HSVTK, pCMV:30, pCMV:75 or pCMV:132 DNA) in 0.25M CaCl2 are mixed with 0.5ml 2 x BBS (see Chen and Okayama) and preincubated at 37°C at 2.5% CO2 for […]. The CaCl2/DNA mix is added dropwise to the plates and mixed in well. After a 24 hour incubation at 37°C in a 2.5% CO2 wet incubator, the cells are rinsed twice with Dulbecco PBS minus Ca/Mg and fed with fresh DMEM + 10% calf serum. Plates are incubated at 37°C with 6% CO2. After 72 hours post-transfection the cells are split 1:3 and plated in DMEM + 10% calf serum containing G418 at 600µg/ml.
(§3) The cells are selected on G418 (600µg/ml) at 37°C for 17 days. […]. Approximately 30-40 clones are selected in this manner for each transfected DNA containing a tk gene in the correct orientation. The pCMV and pCMV:TK-wrong transfections yielded between 130 and 140 clones each. G418 resistant clones are harvested, pooled and plated at a density of 2000 cells/well in 100µl DMEM + 10% calf serum and 200µg/ml G418 + 6% CO2 in 96 well microtiter plates. […]. After three days in the presence of the nucleoside analog, Alamar Blue is added and 6 hours later the plates are scanned using a fluorometer as according to the manufacturer's protocol (Alamar Biosciences, Inc., Sacramento, CA). The plates are incubated a further 24 hours at 37°C and scanned again.
(§4) Determination of the fluorescence level of cells incubated in the presence of Alamar Blue directly relates to cell viability.

[12] = system: ts13 BHK tk- cells transfected with pCMV:30 (HSV-1 TK mutant 30); test: as above; assay type: cell-based, baby hamster; conditions: Mesocricetus auratus, 96 h; effective dose for 50% cell killing, after 4 days on nucleoside analog, pooled G418 resistant clones
Protocol: as §2, §3, §4

[13] = system: ts13 BHK tk- cells transfected with pCMV:132 (HSV-1 TK mutant 132); test: as above; assay type: cell-based, baby hamster; conditions: Mesocricetus auratus, 96 h; effective dose for 50% cell killing, after 4 days on nucleoside analog, pooled G418 resistant clones
Protocol: as §2, §3, §4

[14] = system: ts13 BHK tk- cells transfected with pCMV:HSVTK (wild-type HSV-1 TK); test: as above; assay type: cell-based, baby hamster; conditions: Mesocricetus auratus, 96 h; effective dose for 50% cell killing, after 4 days on nucleoside analog, pooled G418 resistant clones
Protocol: as §2, §3, §4

[15] = system: rat C6 cells expressing gmk/TK-trunc fusion protein; test: Ganciclovir dose response curve, fusion protein against wild-type TK; assay type: cell-based; conditions: Figure 31; fusion protein being the superior one
[16] = system: rat C6 glioblastoma cells transfected with TK mutant 30, subcutaneous tumor; test: Mouse xenograft tumor model with prodrug treatment; assay type: in vivo, Nude mice; conditions: prodrug twice a day for 5 days from day 5; Figures 32-34
Protocol: (§5) Rat C6 glioblastoma cells were transfected with the stable expression vector pREP8D7:dualGFP as described above containing various TK mutants. […] Experiments were carried out to establish prodrug dosing levels for tumor ablation and efficacy of therapy. Nude mice (JAX Labs, Bar Harbor, Maine) were injected subcutaneously with 0.5 x10^6 transfected rat C6 cells. After 5 days, prodrugs (ACV and GCV) were administered twice a day for a further 5 days. Prodrug was given at either of two concentrations (shown as mg/kg). During this period and for an additional 6 days, tumor size was monitored by caliper measurement every other day. At the end of the period, mice were sacrificed and the tumors excised and weighed.

[17] = system: rat C6 glioblastoma cells transfected with TK mutant SR39, subcutaneous tumor; test: Mouse xenograft tumor model with prodrug treatment; assay type: in vivo, Nude mice; conditions: prodrug twice a day for 5 days from day 5; Figures 32-34
Protocol: as §5

Work on Nc1nc2c(ncn2[C@@H]2O[C@H](COP(=O)(O)O)[C@@H](O)[C@H]2O)c(=O)[nH]1 [GMP] yielded a Km [1] of 95 µM and a Km [2] of 146 µM.

Work on Nc1nc2c(ncn2[C@H]2C[C@H](O)[C@@H](COP(=O)(O)O)O2)c(=O)[nH]1 [dGMP] yielded a Km [1] of 218 µM and a Km [2] of 359 µM.

Work on Nc1nc(O)c2ncn(COC(CO)CO)c2n1 [ganciclovir] yielded an IC50 [3] of 17 nM, an IC50 [4] of 5000 nM and an IC50 [5] greater than 1000 nM. The IC50 [6] was 100 nM, the IC50 [7] was 150 nM and the IC50 [8] was 10 nM. The IC50 [9] was 40 nM, the Km ([10]; double reciprocal plots) was 10 µM and the kcat ([10]; per active site) was “.050 s⁻¹”. For the same compound, the IC50 [11] was 470 nM, the IC50 [12] was 4400 nM and the IC50 [13] was 18000 nM. The IC50 [14] was 20000 nM, the “difference in IC50 between fusion protein and wild-type TK” value [15] was 100 fold and the “tumor reduction (tumor diameter, final tumor weight)” value [16] was “significant tumor reduction”. The “tumor reduction (tumor diameter, final tumor weight)” value [17] was “significant tumor reduction”.
